Values of other authors as cited in patent publication US20240156991A1, “STABLE FORMULATIONS OF INDOCYANINE GREEN” (PROVEPHARM LIFE SOLUTIONS, priority 2021, published 2024).

reduction of absorbance at spectral peak (after 10 hours of storage in water and direct light): 10%
fluorescence intensity lost (stored at 4° C. in the dark, three days): 20%
SMILES: CC1(C)C(/C=C/C=C/C=C/C=C2\N(CCCCS(=O)(=O)O)c3ccc4ccccc4c3C2(C)C)=[N+](CCCCS(=O)(=O)O)c2ccc3ccccc3c21 [ICG, Indocyanine green]
